Literature values, collected in US9192596B2, “Self-emulsifying pharmaceutical compositions of rhein or diacerein” (WOCKHARDT RESEARCH CENTRE, priority 2007, dated 2015).
Where a name gives a salt, the structure may show the parent alone.

Tests used:
[1] = inherent pharmacokinetic property; rhein-glucuronide converted to rhein-9-anthrone in colon
[2] = not given; remark: listed apart in the source

For `CC(=O)Oc1cccc2c1C(=O)c1c(OC(C)=O)cc(C(=O)O)cc1C2=O` [potassium salt of diacerein], the solubility in water (EP 243,968) is listed as “water-soluble”.
For `CC(=O)Oc1cccc2c1C(=O)c1c(OC(C)=O)cc(C(=O)O)cc1C2=O` [diacerein, 4,5-bis(acetyloxy) 9,10-dihydro-4,5-dihydroxy-9,10-dioxo-2-anthracenecarboxylic acid], the “soft stool effect expected due to enterohepatic circulation” value [1] is listed as 30-40%, the pKa [2] is listed as 4.5 and the stability ([2]; acidic and alkaline conditions) is listed as “instability under acidic and alkaline conditions”. For the same molecule, the solubility (water, alcohols, acetone, dichloromethane and chloroform) was “practically insoluble”.
